This note sets out measurements from PubChem BioAssay (NCI).

Test systems include 786-0 renal; COLO 205 colon; HCT-15 colon; K-562 leukemia; SF-295 CNS; U251 CNS; LOX IMVI melanoma; MDA-MB-435; UO-31 renal.
Holding throughout (experiment): growth of human tumour cells (NCI), 48 h

“And” between values parts separate entries of the source, which are not always exact repeats. Identical values can stand only once.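 Following 48 hours of exposure in 96-well plates, responses at five concentrations were used to interpolate endpoints linearly. The concentration for 50% growth inhibition is given as GI50. At the TGI there is no net growth.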

Regarding `CC(C)(C)C(=O)N1C(C(=O)O)Cc2ccccc2[C@@H]1Cc1ccccc1` (some centres not stated), the TGI in the test on 786-0 renal, in the test on COLO 205 colon, with HCT-15 colon, with K-562 leukemia, with SF-295 CNS and with U251 CNS was greater than 100 µM each time.
With `CSc1ccc(C2=NN(C(C)=O)C(c3ccc(-c4cc(Cl)c(Cl)cc4Cl)o3)C2)cc1` (configuration not stated), the GI50 in the test with 786-0 renal was 18.9 µM; in the test with COLO 205 colon it was 16.8 µM; in the test on HCT-15 colon it was 14.8 µM; in the test with K-562 leukemia, 14.8 µM; in the test on LOX IMVI melanoma it was 15.4 µM; with MDA-MB-435 it was 15.5 µM. Further, the GI50 was 18.3 µM in the test on SF-295 CNS, 16.9 µM in the test with U251 CNS and 12.4 µM with UO-31 renal. Also, the TGI was 32.9 µM in the test with 786-0 renal; 32.1 µM in the test on COLO 205 colon; 28 µM in the test with HCT-15 colon; 34.2 µM in the test with K-562 leukemia; 28.7 µM with LOX IMVI melanoma; 36.4 µM in the test with MDA-MB-435. The TGI in the test with SF-295 CNS was 45.5 µM; with U251 CNS it was 30.6 µM; in the test on UO-31 renal, 25.4 µM.
Turning to `COc1ccc(/C=C/c2cc(OC)c(OC(C)=O)c(OC)c2)cc1`, the TGI in the test on 786-0 renal is greater than 100 µM; with COLO 205 colon, greater than 100 µM; in the test with HCT-15 colon it was 80.6 µM; with U251 CNS, 38.4 µM; in the test on UO-31 renal, 49.3 µM.
Take `C=C(C)[C@@H]1CC[C@]2(CO)CC[C@]3(C)[C@H](CC[C@@H]4[C@@]5(C)CCCNC(C)(C)[C@@H]5CC[C@]43C)[C@@H]12`: the GI50 with 786-0 renal was 1.62 µM; in the test on COLO 205 colon it was 1.54 µM; with HCT-15 colon, 1.39 µM; with K-562 leukemia, 1.08 µM; with SF-295 CNS it was 1.66 µM; in the test with U251 CNS, 1.65 µM. In the test on UO-31 renal, the GI50 is 1.56 µM. For the same compound, the TGI turned out to be 3.16 µM in the test with 786-0 renal; 3.24 µM in the test on COLO 205 colon; 2.77 µM with HCT-15 colon; 3.79 µM in the test on K-562 leukemia; 3.13 µM in the test with SF-295 CNS; 3.09 µM with U251 CNS. The same compound had a TGI with UO-31 renal of 2.99 µM.
Take `C[C@@H]1C[C@H](N)C[C@H](c2ccncc2NC(=O)c2ccc(F)c(-c3c(F)cccc3F)n2)C1`: the GI50 in the test with 786-0 renal is 12.2 µM and > 10 µM; in the test on COLO 205 colon, 4.38 µM and 3.84 µM; with HCT-15 colon, 11.6 µM and > 10 µM; with K-562 leukemia it was 4.1 µM and 4.22 µM; with LOX IMVI melanoma it was 10.6 µM and > 10 µM; in the test on MDA-MB-435 it was 10.4 µM and 9.19 µM. The GI50 was 12.6 µM and > 10 µM in the test with SF-295 CNS; 12 µM and > 10 µM in the test with U251 CNS; 3.65 µM and 1.28 µM with UO-31 renal. Besides, the TGI with 786-0 renal was 25.6 µM and > 10 µM; in the test on COLO 205 colon, 22.1 µM and > 10 µM; with HCT-15 colon it was 25.7 µM and > 10 µM; with K-562 leukemia it was 21.3 µM and > 10 µM; with LOX IMVI melanoma, 23.3 µM and > 10 µM; in the test on MDA-MB-435 it was 22.1 µM and > 10 µM. Besides, the TGI is 25.8 µM and > 10 µM in the test with SF-295 CNS; 24.7 µM and > 10 µM in the test with U251 CNS; 18.6 µM and > 10 µM with UO-31 renal.
As for `CN(C)c1ccc(/C=c2\sc3nnc(-c4ccco4)n3c2=O)cc1`, the TGI with 786-0 renal, in the test on COLO 205 colon, in the test on K-562 leukemia, in the test on LOX IMVI melanoma, with SF-295 CNS and with U251 CNS was greater than 100 µM each time. The same compound returned a TGI in the test with UO-31 renal greater than 100 µM.
On to `CC(=O)O.CN1[CH-]N(Cc2ccc(C#N)cc2)c2ccccc21.[Ag+]`, for which the GI50 with 786-0 renal was 18.4 µM; with COLO 205 colon, 10.3 µM; in the test on HCT-15 colon, 18 µM; with K-562 leukemia it was 18 µM; in the test with LOX IMVI melanoma, 15.6 µM; in the test with MDA-MB-435 it was 16.9 µM. Further, the values for the GI50 in the test with SF-295 CNS, with U251 CNS and in the test with UO-31 renal were 82.3 µM, 17.2 µM and 16.2 µM, respectively. The TGI with 786-0 renal came to 36.7 µM; with COLO 205 colon it was 31.5 µM; in the test on HCT-15 colon, 38 µM; in the test on K-562 leukemia, 46 µM; in the test on LOX IMVI melanoma, 36.2 µM; with MDA-MB-435, 32 µM. For the same compound, the TGI with SF-295 CNS is greater than 100 µM; with U251 CNS it was 36.4 µM; in the test with UO-31 renal, 30.3 µM.
In the case of `[N-]=[N+]=NCN1C(=O)C2C3C=CC(C2C1=O)C1C2C(=O)N(CN=[N+]=[N-])C(=O)C2C31` (configuration not stated), the TGI in the test on 786-0 renal, in the test with COLO 205 colon, in the test with HCT-15 colon, with K-562 leukemia, in the test on LOX IMVI melanoma and in the test on MDA-MB-435 was greater than 100 µM throughout. In addition, the TGI in the test on SF-295 CNS and in the test on UO-31 renal was greater than 100 µM each time.
As to `Cc1ccc(OCC2CO2)c(Br)c1` (configuration not stated), the TGI in the test with 786-0 renal was found to be 62 µM; with COLO 205 colon it was 32.3 µM; in the test with HCT-15 colon, 29.2 µM; with K-562 leukemia, 71.6 µM; in the test on LOX IMVI melanoma it was 30.4 µM; in the test with MDA-MB-435, 48.2 µM. Further, the TGI came out at 63.7 µM in the test with SF-295 CNS, 32.6 µM in the test on U251 CNS and 39.1 µM in the test on UO-31 renal.
On to `CCCCCCCCCCCCSC(=S)c1c(C)[nH]n(-c2ccccc2)c1=O`, for which the TGI in the test with 786-0 renal was greater than 50 µM; with COLO 205 colon, greater than 50 µM; in the test with HCT-15 colon it was greater than 50 µM; in the test with K-562 leukemia, greater than 50 µM; in the test on LOX IMVI melanoma, greater than 50 µM; with SF-295 CNS, 35.6 µM. Moreover, the TGI was greater than 50 µM in the test on U251 CNS and 38.9 µM with UO-31 renal.
With `COc1cc2nc(Nc3cccc(Cl)c3)nc(N)c2cc1OC`, the GI50 in the test on 786-0 renal is 1.85 µM; with COLO 205 colon, 1.68 µM; in the test with HCT-15 colon it was 2.62 µM; in the test with K-562 leukemia, 3.67 µM; in the test with LOX IMVI melanoma, 2.45 µM; with MDA-MB-435 it was 2.81 µM. Also, the GI50 with SF-295 CNS is 4.37 µM; in the test with U251 CNS, 3.08 µM; in the test with UO-31 renal, 6.66 µM. For the same compound, the TGI with 786-0 renal was 3.73 µM; with COLO 205 colon it was 3.39 µM; in the test with HCT-15 colon it was 10.4 µM; in the test with K-562 leukemia it was greater than 36.1 µM; with LOX IMVI melanoma, 6.14 µM; in the test with MDA-MB-435, 9.71 µM. Moreover, the TGI was greater than 36.3 µM in the test with SF-295 CNS, 9.96 µM with U251 CNS and 20.9 µM in the test with UO-31 renal.
On to `NC(=S)N1N=C2CCCCCC[C@@H]2[C@H]1c1ccccc1`, for which the TGI in the test on 786-0 renal, with COLO 205 colon, in the test with HCT-15 colon, with K-562 leukemia, in the test with LOX IMVI melanoma and with SF-295 CNS was greater than 100 µM each time. Also, the TGI in the test on U251 CNS and in the test with UO-31 renal was greater than 100 µM throughout.
